Test results reported in patent US5409933A, “Quinoline derivatives and processes for preparing the same” (priority 1993, dated 1995).
Where a name gives a salt, the structure may show the parent alone. Read-outs that look alike come from different tables or passages of the source.

Columns and labels:
[1] = test system: Staphylococcus aureus 503; experiment: In Vitro Anti-Bacterial Activity Test (MIC, agar dilution); format: cell-based; conditions: Staphylococcus aureus 503, Muller-Hinton agar, 37° C., 18 hours
Method in brief: (§1)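 Each strain, at 10^7 C.F.U./ml, was spotted onto Muller-Hinton agar carrying serial compound dilutions. Growth after an 18-hour incubation at 37° C. defined the minimum inhibitory concentration.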

[2] = test system: Pseudomonas aeruginosa 9027; experiment: as above; format: cell-based; conditions: Muller-Hinton agar, 37° C., 18 hours
Method in brief: as §1

Escherichia coli 078 = experiment: as above; format: cell-based; conditions: Escherichia coli 078, Muller-Hinton agar, 37° C., 18 hours
Method in brief: as §1

[3] = test system: Streptococcus faecium MD8b; experiment: as above; format: cell-based; conditions: Muller-Hinton agar, 37° C., 18 hours
Method in brief: as §1

[4] = test system: Klebsiella aerogenes 1522E; experiment: as above; format: cell-based; conditions: Klebsiella aerogenes 1522E, Muller-Hinton agar, 37° C., 18 hours
Method in brief: as §1

Klebsiella oxytoca 1082E = experiment: as above; format: cell-based; conditions: Klebsiella oxytoca 1082E, Muller-Hinton agar, 37° C., 18 hours
Method in brief: as §1

Escherichia coli 1507E = experiment: as above; format: cell-based; conditions: Muller-Hinton agar, 37° C.
Method in brief: as §1

[5] = test system: Streptococcus pyogenes 77A; experiment: as above; format: cell-based; conditions: Streptococcus pyogenes 77A, Muller-Hinton agar, 37° C., 18 hours
Method in brief: as §1

[6] = test system: Streptococcus pyogenes 308A; experiment: as above; format: cell-based; conditions: Muller-Hinton agar, 37° C., 18 hours
Method in brief: as §1

Escherichia coli DC2 = experiment: as above; format: cell-based
Method in brief: as §1

[7] = test system: Pseudomonas aeruginosa 1592E; experiment: as above; format: cell-based; conditions: Muller-Hinton agar, 37° C., 18 hours
Method in brief: as §1

Enterobacter cloacae P99 = experiment: as above; format: cell-based
Method in brief: (§2)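 Agar-incorporation MIC: Muller-Hinton medium, 10^7 C.F.U./ml inoculum, 18 h incubation at 37° C., growth checked by eye; ciprofloxacin reference.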

[8] = test system: Pseudomonas aeruginosa 1771M; experiment: as above; format: cell-based; conditions: Muller-Hinton agar, 37° C.
Method in brief: as §1

Salmonella typhimurium = experiment: as above; format: cell-based; conditions: Salmonella typhimurium, Muller-Hinton agar, 37° C., 18 hours
Method in brief: as §1

[9] = test system: Enterobacter cloacae 1321E; experiment: as above; format: cell-based
Method in brief: as §1

Escherichia coli DC0 = experiment: as above; format: cell-based; conditions: Muller-Hinton agar, 37° C., 18 hours
Method in brief: as §1

[10] = test system: Staphylococcus aureus SG511; experiment: as above; format: cell-based; conditions: Staphylococcus aureus SG511, Muller-Hinton agar, 37° C., 18 hours
Method in brief: as §1

[11] = test system: Staphylococcus aureus 285; experiment: as above; format: cell-based; conditions: Staphylococcus aureus 285, Muller-Hinton agar, 37° C., 18 hours
Method in brief: as §1

[12] = test system: Pseudomonas aeruginosa 1771; experiment: as above; format: cell-based; conditions: Pseudomonas aeruginosa 1771, Muller-Hinton agar, 37° C., 18 hours
Method in brief: as §1

Escherichia coli TEM = experiment: as above; format: cell-based; conditions: Muller-Hinton agar, 37° C.
Method in brief: as §2

P. mirabilis = experiment: Treatment Effect on the Systemic Infection; format: in vivo, NMRI mice; conditions: Proteus mirabilis, in Mus musculus, 240 h
Procedure: (§3) 10 fold of the pathogens which lead to 100% lethality were injected intraperitoneally to male and female NMRI mice weighing 18 to 20 g. Immediately and 4 hours after injection, the dose of test compounds, which was determined by two-fold serial dilution method, was administered orally or subcutaneously to the mice, and on the 10th day, the effect was evaluated in terms of ED50 calculated from the number of survived mice by the probit analysis.

Acute Toxicity Test = conditions: mouse, in vivo, ICR mice, 14th day
Procedure: Test compounds were administered to ICR mice weighing 20 to 25 g. On 14th day, LD50 was calculated from the number of survived mice by the probit analysis.

S. aureus 17740 = experiment: Treatment Effect on the Systemic Infection; format: in vivo, NMRI mice; conditions: 240 h
Procedure: as §3

[13] = Enterococcus faecium, read-out: MIC
[14] = Klebsiella aerogenes, 1522E, 18 h, read-out: MIC
[15] = Enterobacter cloacae, P99, 18 h
[16] = Pseudomonas aeruginosa, 1771M, 18 h
[17] = Salmonella enterica, read-out: MIC
[18] = Enterobacter cloacae 1321E, Muller-Hinton agar, 37° C., 18 hours, read-out: MIC
[19] = Staphylococcus aureus, 285, 18 h, read-out: MIC
[20] = P. mirabilis, oral, immediately and 4 hours after infection, survival on 10th day, read-out: ED50 Oral Administration
[21] = sc, P. mirabilis, subcutaneous, immediately and 4 hours after infection, survival on 10th day, read-out: ED50 Subcutaneous Injection
[22] = ip, read-out: Acute Toxicity LD50, Peritomeo Injection
[23] = oral, read-out: Acute Toxicity LD50, Oral Administration
[24] = Staphylococcus aureus, in Mus musculus, S. aureus 17740, oral, immediately and 4 hours after infection, survival on 10th day, read-out: ED50 Oral Administration
[25] = Staphylococcus aureus, in Mus musculus, sc, S. aureus 17740, subcutaneous, immediately and 4 hours after infection, survival on 10th day, read-out: ED50 Subcutaneous Injection

Compound	MIC ([1]; read-out: MIC)	MIC ([2]; read-out: MIC)	MIC (Escherichia coli 078; read-out: MIC)	MIC [3, 13]	MIC [4, 14]	MIC (Klebsiella oxytoca 1082E; read-out: MIC)	MIC ([5]; read-out: MIC)	MIC ([6]; read-out: MIC)	MIC (Escherichia coli DC2; Escherichia coli, DC2, 18 h)	MIC ([7]; read-out: MIC)	MIC (Enterobacter cloacae P99; [15])	MIC [8, 16]	MIC (Salmonella typhimurium; [17])	MIC (Escherichia coli DC0; read-out: MIC)	MIC ([10]; read-out: MIC)	MIC [11, 19]	MIC ([12]; read-out: MIC)	MIC (Escherichia coli TEM; Escherichia coli, 18 h)	ED50 (P. mirabilis; [20])	ED50 (P. mirabilis; [21])	other results
O=C(C[N+](=O)[O-])c1cn(C2CC2)c2c(Cl)c(N3CC4=C(CNC4)C3)c(F)cc2c1=O [Example 34, 1-cyclopropyl-6-fluoro-8-chloro-7-(3,7-diazabicyclo[3.3.0]oct-1,5-en-3-yl)-3-(2-nitroacetyl)-1,4-dihydro-4-oxoquinoline hydrochloride]	0.098 µg/mL	0.391 µg/mL	< 0.002 µg/mL	0.098 µg/mL	0.013 µg/mL	< 0.002 µg/mL	0.098 µg/mL	0.391 µg/mL	0.098 µg/mL	0.391 µg/mL	0.007 µg/mL	0.098 µg/mL	0.004 µg/mL	0.195 µg/mL	0.025 µg/mL	0.049 µg/mL	0.195 µg/mL	0.007 µg/mL	0.41 mg/kg	0.16 mg/kg	MIC (Escherichia coli 1507E; Escherichia coli, 1507E, 18 h): 0.007 µg/mL; MIC [9, 18]: 0.049 µg/mL; LD50 at 336 h (Acute Toxicity Test; [22]): 620 mg/kg; LD50 at 336 h (Acute Toxicity Test; [23]): 4000 mg/kg
CC1COc2c(N3CCN(C)CC3)c(F)cc3c(=O)c(C(=O)O)cn1c23 (centres unmarked) [Ofloxacin, reference compound]	–	–	–	–	–	–	–	–	–	–	–	–	–	–	–	–	–	–	1.64 mg/kg	0.33 mg/kg	ED50 (S. aureus 17740; [24]): > 200 mg/kg; ED50 (S. aureus 17740; [25]): 200 mg/kg
O=C(O)c1cn(C2CC2)c2cc(N3CCNCC3)c(F)cc2c1=O [Ciprofloxacin, reference compound]	–	–	–	–	–	–	–	–	–	–	–	–	–	–	–	–	–	–	–	–	ED50 (S. aureus 17740; Staphylococcus aureus, 17740, in Mus musculus, po, read-out: ED50 Oral Administration): > 200 mg/kg; ED50 (P. mirabilis; po, read-out: ED50 Oral Administration): 0.82 mg/kg; ED50 (P. mirabilis; sc, read-out: ED50 Subcutaneous Injection): 0.16 mg/kg
N[C@H]1CCN(c2c(F)cc3c(=O)c(C(=O)C[N+](=O)[O-])cn(C4CC4)c3c2Cl)C1 [Example 13, 1-cyclopropyl-6-fluoro-8-chloro-7-(3-3S-aminopyrrolidin-1-yl)-3-(2-nitroacetyl)-1,4-dihydro-4-oxoquinoline hydrochloride]	0.049 µg/mL	0.195 µg/mL	< 0.002 µg/mL	0.195 µg/mL	0.013 µg/mL	< 0.002 µg/mL	0.195 µg/mL	0.195 µg/mL	0.013 µg/mL	0.195 µg/mL	0.004 µg/mL	0.049 µg/mL	< 0.002 µg/mL	0.049 µg/mL	0.025 µg/mL	0.025 µg/mL	0.195 µg/mL	< 0.002 µg/mL	0.21 mg/kg	0.08 mg/kg	MIC (Escherichia coli 1507E; 18 hours, read-out: MIC): 0.004 µg/mL; MIC [9, 18]: < 0.002 µg/mL; ED50 (S. aureus 17740; [24]): 128 mg/kg; ED50 (S. aureus 17740; [25]): 16.8 mg/kg; LD50 at 336 h (Acute Toxicity Test; [22]): 580 mg/kg; LD50 at 336 h (Acute Toxicity Test; [23]): 3800 mg/kg
CNCC1=CCN(c2c(F)cc3c(=O)c(C(=O)C[N+](=O)[O-])cn(C4CC4)c3c2Cl)C1 [Example 16, 1-cyclopropyl-6-fluoro-8-chloro-7-(3-methylaminomethyl-2,5-dihydropyrrol-1-yl)-3-(2-nitroacetyl)-1,4-dihydro-4-oxoquinoline hydrochloride]	< 0.002 µg/mL	0.781 µg/mL	0.004 µg/mL	0.013 µg/mL	0.013 µg/mL	0.007 µg/mL	0.025 µg/mL	0.098 µg/mL	0.013 µg/mL	0.781 µg/mL	0.007 µg/mL	0.195 µg/mL	< 0.02 µg/mL	0.098 µg/mL	0.004 µg/mL	0.004 µg/mL	0.391 µg/mL	0.004 µg/mL	–	–	MIC (Escherichia coli 1507E; Escherichia coli, 1507E, 18 h): 0.013 µg/mL; MIC ([9]; Enterobacter cloacae, 1321E, 18 h): 0.007 µg/mL; ED50 (S. aureus 17740; [24]): 49.7 mg/kg; ED50 (S. aureus 17740; [25]): 97.6 mg/kg; LD50 at 336 h (Acute Toxicity Test; [22]): 605 mg/kg; LD50 at 336 h (Acute Toxicity Test; [23]): 3800 mg/kg
1-cyclopropyl-6-fluoro-8-chloro-7-(7-amino-5-azaspiro[2.4]hept-5-yl)-3-(2- nitroacetyl)-1,4-dihydro-4-oxoquinoline hydrochloride [Example 35]	–	–	–	–	–	–	–	–	–	–	–	–	–	–	–	–	–	–	–	–	MIC [1]: 0.013 µg/mL; MIC [2]: 0.781 µg/mL; MIC (Escherichia coli 078): 0.007 µg/mL; MIC [3]: 0.098 µg/mL; MIC [4]: 0.013 µg/mL; MIC (Klebsiella oxytoca 1082E): < 0.002 µg/mL; MIC (Escherichia coli 1507E; 18 hours): 0.007 µg/mL; MIC [5]: 0.098 µg/mL; MIC [6]: 0.195 µg/mL; MIC (Escherichia coli DC2; Escherichia coli DC2, Muller-Hinton agar, 37° C., 18 hours): 0.049 µg/mL; MIC [7]: 0.781 µg/mL; MIC (Enterobacter cloacae P99; Enterobacter cloacae P99, Muller-Hinton agar, 37° C., 18 hours): 0.025 µg/mL; MIC ([8]; 18 hours): 0.098 µg/mL; MIC (Salmonella typhimurium): 0.013 µg/mL; MIC ([9]; Enterobacter cloacae 1321E, Muller-Hinton agar, 37° C., 18 hours): 0.025 µg/mL; MIC (Escherichia coli DC0): 0.098 µg/mL; MIC [10]: 0.025 µg/mL; MIC [11]: 0.025 µg/mL; MIC [12]: 0.391 µg/mL; MIC (Escherichia coli TEM; 18 hours): 0.013 µg/mL
